Measurements taken from ChEMBL document CHEMBL3132769, “Fragment growing to retain or alter the selectivity of anchored kinase hinge-binding fragments” (Medchemcomm, 2014).

Tests used:
[1] = biological target: Fibroblast growth factor receptor 2 (Homo sapiens) (UniProt P21802); experiment: Inhibition of human FGFR2 catalytic domain expressed in baculovirus assessed as substrate phosphorylation using fluorescence-labelled peptides as substrate at 9 uM after 90 mins by microfluidic peptide phosphorylation assay
Chain of Fibroblast growth factor receptor 2 (Homo sapiens) (P21802 22-821 limits assumed): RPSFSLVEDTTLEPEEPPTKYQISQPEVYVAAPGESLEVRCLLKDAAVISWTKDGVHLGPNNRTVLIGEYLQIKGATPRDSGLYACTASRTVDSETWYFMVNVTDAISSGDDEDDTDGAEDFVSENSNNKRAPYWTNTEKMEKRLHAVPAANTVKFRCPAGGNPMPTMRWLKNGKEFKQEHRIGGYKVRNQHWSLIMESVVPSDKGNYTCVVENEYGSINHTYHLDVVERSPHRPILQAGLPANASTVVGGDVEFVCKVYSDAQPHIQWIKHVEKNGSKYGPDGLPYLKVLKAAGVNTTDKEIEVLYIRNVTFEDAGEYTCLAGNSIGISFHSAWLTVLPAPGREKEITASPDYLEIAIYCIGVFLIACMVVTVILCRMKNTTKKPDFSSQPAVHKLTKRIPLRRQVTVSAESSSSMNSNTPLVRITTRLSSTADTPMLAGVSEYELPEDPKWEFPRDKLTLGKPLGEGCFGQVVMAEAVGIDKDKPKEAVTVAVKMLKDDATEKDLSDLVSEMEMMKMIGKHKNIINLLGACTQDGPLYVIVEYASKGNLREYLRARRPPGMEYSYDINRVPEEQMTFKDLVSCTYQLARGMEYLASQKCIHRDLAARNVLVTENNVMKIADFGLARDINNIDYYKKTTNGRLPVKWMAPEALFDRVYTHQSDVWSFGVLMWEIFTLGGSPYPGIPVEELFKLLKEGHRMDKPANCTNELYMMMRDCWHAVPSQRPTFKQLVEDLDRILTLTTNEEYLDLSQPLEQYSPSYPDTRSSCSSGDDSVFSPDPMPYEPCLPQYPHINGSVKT

[2] = biological target: T1, Serine/threonine-protein kinase D3 (Homo sapiens) (UniProt O94806); experiment: Inhibition of human full length PKD3 expressed in baculovirus assessed as substrate phosphorylation using fluorescence-labelled peptides as substrate at 95 uM after 90 mins by microfluidic peptide phosphorylation assay
T1 sequence (whole entry): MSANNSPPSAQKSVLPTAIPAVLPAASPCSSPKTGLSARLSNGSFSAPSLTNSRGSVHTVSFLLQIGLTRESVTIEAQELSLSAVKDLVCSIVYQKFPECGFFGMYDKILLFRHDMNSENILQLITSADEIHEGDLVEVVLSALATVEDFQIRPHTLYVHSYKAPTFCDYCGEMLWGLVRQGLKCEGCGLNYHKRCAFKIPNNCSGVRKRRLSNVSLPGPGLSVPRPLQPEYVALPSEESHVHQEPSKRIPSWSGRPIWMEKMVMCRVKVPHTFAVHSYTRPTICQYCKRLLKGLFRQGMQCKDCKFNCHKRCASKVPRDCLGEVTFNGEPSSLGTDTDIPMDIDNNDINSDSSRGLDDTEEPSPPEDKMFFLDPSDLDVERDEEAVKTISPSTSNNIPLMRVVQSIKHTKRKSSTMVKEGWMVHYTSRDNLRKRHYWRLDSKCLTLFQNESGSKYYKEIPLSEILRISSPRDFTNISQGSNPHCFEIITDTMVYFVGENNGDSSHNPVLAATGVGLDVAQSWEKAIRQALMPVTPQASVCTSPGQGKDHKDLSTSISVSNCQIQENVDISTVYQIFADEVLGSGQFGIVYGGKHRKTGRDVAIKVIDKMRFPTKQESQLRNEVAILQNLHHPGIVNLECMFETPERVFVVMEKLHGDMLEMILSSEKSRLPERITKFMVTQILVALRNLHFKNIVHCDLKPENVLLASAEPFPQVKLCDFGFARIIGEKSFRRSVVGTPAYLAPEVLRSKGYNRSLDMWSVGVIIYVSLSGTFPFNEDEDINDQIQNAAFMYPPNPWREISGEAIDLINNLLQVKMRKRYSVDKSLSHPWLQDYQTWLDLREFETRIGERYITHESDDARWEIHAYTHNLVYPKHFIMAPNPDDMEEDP

[3] = biological target: Serine/threonine-protein kinase Chk2 (Homo sapiens) (UniProt O96017); experiment: Inhibition of human full length CHK2 expressed in baculovirus assessed as substrate phosphorylation using fluorescence-labelled peptides as substrate at 0.06 uM after 90 mins by microfluidic peptide phosphorylation assay
[4] = biological target: T2, Protein kinase C zeta type (Homo sapiens) (UniProt Q05513); experiment: Inhibition of human full length PKC zeta expressed in baculovirus assessed as substrate phosphorylation using fluorescence-labelled peptides as substrate at 0.1 uM after 90 mins by microfluidic peptide phosphorylation assay
T2 sequence (whole entry): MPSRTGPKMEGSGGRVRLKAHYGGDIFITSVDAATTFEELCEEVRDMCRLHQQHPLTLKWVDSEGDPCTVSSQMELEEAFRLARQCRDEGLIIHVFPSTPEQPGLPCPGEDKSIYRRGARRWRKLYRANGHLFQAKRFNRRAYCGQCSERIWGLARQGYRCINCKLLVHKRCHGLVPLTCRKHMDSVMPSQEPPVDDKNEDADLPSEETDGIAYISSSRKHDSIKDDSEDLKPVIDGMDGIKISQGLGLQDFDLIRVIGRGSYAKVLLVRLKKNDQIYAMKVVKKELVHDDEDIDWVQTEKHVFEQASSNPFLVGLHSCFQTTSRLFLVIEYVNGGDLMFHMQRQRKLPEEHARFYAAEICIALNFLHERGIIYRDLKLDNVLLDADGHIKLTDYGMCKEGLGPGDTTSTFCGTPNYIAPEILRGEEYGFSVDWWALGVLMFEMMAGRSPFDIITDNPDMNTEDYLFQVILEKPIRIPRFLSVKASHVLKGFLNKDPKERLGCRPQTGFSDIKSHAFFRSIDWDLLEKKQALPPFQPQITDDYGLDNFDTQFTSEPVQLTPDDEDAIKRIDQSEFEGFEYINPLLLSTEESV

[5] = biological target: MAP kinase-activated protein kinase 3 (Homo sapiens) (UniProt Q16644); conditions: 0.1 uM
Chain of MAP kinase-activated protein kinase 3 (Homo sapiens) (Q16644 whole entry, looked up): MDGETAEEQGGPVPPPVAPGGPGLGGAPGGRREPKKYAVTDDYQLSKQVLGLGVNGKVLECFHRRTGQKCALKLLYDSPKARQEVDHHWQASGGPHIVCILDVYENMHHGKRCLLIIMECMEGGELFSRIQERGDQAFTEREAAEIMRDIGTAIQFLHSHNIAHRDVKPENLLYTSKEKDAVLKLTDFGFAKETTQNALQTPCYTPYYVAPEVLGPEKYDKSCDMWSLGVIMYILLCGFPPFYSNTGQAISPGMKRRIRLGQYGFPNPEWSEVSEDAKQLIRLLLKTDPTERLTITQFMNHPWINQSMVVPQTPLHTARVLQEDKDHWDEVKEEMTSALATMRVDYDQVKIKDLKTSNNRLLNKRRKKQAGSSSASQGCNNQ
Description: Inhibition of human full length MAPKAPK3 expressed in Escherichia coli cell assessed as substrate phosphorylation using fluorescence-labelled peptides as substrate at 0.1 uM after 90 mins by microfluidic peptide phosphorylation assay

[6] = biological target: Hepatocyte growth factor receptor (Homo sapiens) (UniProt P08581); conditions: 0.1 uM
Description: Inhibition of human MET cytoplasmic domain expressed in baculovirus assessed as substrate phosphorylation using fluorescence-labelled peptides as substrate at 0.1 uM after 90 mins by microfluidic peptide phosphorylation assay

[7] = test system: Tyrosine-protein kinase ABL1 (Homo sapiens), P00519 [Q252H]; experiment: Inhibition of human truncated ABL Q252H mutant expressed in baculovirus assessed as substrate phosphorylation using fluorescence-labelled peptides as substrate at 420 uM after 90 mins by microfluidic peptide phosphorylation assay
[8] = biological target: Tyrosine-protein kinase BTK (Homo sapiens) (UniProt Q06187); experiment: Inhibition of human full length BTK expressed in baculovirus assessed as substrate phosphorylation using fluorescence-labelled peptides as substrate at 0.2 uM after 90 mins by microfluidic peptide phosphorylation assay
Chain of Tyrosine-protein kinase BTK (Homo sapiens) (Q06187 whole entry, the tested form may be a part): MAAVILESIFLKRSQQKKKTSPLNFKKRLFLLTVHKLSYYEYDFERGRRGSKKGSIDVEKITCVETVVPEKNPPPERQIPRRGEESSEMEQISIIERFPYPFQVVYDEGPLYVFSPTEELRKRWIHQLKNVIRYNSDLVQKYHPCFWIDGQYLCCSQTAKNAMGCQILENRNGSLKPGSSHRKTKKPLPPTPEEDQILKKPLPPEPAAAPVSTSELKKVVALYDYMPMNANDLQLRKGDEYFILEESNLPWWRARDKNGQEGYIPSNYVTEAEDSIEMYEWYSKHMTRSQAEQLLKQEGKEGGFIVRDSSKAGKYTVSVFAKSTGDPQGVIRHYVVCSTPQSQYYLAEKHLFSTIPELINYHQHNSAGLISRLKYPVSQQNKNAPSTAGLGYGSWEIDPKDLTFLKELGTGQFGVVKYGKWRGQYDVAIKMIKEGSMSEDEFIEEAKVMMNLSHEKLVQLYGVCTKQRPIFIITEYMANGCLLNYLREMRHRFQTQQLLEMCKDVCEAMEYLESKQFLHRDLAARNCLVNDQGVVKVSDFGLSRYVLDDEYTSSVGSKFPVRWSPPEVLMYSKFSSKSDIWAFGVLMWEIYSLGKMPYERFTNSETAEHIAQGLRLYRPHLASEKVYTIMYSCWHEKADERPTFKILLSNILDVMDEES

[9] = biological target: Mitogen-activated protein kinase kinase kinase kinase 4 (Homo sapiens) (UniProt O95819); experiment: Inhibition of human HGK catalytic domain expressed in baculovirus assessed as substrate phosphorylation using fluorescence-labelled peptides as substrate at 0.2 uM after 90 mins by microfluidic peptide phosphorylation assay
Chain of Mitogen-activated protein kinase kinase kinase kinase 4 (Homo sapiens) (O95819 2-1239 limits assumed): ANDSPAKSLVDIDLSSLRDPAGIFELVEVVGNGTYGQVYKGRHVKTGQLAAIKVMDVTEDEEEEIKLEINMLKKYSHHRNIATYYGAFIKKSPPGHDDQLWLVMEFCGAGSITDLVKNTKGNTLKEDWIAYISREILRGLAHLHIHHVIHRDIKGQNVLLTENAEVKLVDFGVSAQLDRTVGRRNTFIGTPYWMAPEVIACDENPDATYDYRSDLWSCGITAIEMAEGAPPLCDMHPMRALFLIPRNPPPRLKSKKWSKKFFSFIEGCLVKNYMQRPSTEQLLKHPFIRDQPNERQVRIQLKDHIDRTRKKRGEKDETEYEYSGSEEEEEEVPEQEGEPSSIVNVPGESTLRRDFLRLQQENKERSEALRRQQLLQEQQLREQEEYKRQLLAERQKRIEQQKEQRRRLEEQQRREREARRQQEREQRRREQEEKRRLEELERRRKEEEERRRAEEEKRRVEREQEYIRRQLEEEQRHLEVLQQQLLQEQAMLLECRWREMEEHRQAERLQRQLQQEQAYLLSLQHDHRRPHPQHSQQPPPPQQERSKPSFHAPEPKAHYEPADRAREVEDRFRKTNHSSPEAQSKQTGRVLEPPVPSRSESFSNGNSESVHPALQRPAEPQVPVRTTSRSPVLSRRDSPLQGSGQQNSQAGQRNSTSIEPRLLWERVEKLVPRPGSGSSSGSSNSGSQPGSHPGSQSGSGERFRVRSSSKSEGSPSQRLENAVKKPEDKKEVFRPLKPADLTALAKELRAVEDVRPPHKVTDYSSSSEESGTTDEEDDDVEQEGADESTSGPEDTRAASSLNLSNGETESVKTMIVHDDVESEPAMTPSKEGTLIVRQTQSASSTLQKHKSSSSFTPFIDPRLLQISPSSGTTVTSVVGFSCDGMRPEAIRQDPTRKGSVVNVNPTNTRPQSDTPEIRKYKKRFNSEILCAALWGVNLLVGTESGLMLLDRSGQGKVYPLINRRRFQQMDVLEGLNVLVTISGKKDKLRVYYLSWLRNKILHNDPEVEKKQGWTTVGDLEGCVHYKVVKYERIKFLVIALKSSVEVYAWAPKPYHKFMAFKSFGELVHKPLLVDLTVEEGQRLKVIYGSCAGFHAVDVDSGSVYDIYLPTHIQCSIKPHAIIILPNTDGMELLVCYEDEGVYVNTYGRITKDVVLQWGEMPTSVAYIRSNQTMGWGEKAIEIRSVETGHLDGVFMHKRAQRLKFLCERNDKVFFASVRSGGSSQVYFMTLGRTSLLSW

[10] = biological target: Insulin receptor (Homo sapiens) (UniProt P06213); experiment: Inhibition of human INSR catalytic domain expressed in baculovirus assessed as substrate phosphorylation using fluorescence-labelled peptides as substrate at 0.2 uM after 90 mins by microfluidic peptide phosphorylation assay
[11] = biological target: Mitogen-activated protein kinase 1 (Homo sapiens) (UniProt P28482); experiment: Inhibition of human full length ERK2 expressed in Escherichia coli cell assessed as substrate phosphorylation using fluorescence-labelled peptides as substrate at 2 uM after 90 mins by microfluidic peptide phosphorylation assay
Chain of Mitogen-activated protein kinase 1 (Homo sapiens) (P28482 whole entry): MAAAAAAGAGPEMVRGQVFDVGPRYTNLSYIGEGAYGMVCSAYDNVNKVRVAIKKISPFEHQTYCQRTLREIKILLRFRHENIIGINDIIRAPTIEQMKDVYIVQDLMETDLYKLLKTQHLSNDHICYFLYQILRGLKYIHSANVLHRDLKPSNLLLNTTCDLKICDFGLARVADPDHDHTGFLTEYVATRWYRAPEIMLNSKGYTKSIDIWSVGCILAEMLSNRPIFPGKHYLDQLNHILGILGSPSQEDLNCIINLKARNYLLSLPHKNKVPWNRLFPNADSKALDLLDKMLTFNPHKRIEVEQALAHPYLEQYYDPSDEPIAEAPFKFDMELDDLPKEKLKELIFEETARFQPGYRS

[12] = biological target: Ribosomal protein S6 kinase alpha-3 (Homo sapiens) (UniProt P51812); experiment: Inhibition of human full length RSK2 expressed in baculovirus assessed as substrate phosphorylation using fluorescence-labelled peptides as substrate at 2 uM after 90 mins by microfluidic peptide phosphorylation assay
Chain of Ribosomal protein S6 kinase alpha-3 (Homo sapiens) (P51812 whole entry, the tested form may be a part): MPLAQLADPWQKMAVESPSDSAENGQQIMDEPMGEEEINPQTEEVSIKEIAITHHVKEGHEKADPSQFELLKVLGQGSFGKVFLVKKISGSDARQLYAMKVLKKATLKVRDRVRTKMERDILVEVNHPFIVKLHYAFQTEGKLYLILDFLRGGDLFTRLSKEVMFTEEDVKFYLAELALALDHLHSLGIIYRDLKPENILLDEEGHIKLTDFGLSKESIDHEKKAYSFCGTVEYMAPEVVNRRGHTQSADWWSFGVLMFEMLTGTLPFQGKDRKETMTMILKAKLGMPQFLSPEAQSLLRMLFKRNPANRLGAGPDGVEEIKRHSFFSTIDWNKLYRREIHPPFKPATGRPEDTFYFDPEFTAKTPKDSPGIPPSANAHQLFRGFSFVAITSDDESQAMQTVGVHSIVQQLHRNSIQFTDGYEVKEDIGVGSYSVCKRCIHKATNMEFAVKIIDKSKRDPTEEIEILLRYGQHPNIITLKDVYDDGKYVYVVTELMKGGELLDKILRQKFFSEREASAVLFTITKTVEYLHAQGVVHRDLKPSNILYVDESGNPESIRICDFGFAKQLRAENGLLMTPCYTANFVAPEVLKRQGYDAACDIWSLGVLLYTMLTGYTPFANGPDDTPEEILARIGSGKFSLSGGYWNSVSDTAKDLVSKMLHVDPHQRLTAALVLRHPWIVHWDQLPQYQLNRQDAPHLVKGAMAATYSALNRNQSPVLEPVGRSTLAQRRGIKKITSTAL

[13] = biological target: Ribosomal protein S6 kinase alpha-3 (Homo sapiens) (UniProt P51812); experiment: Inhibition of human full length RSK2 expressed in baculovirus assessed as substrate phosphorylation using fluorescence-labelled peptides as substrate at 1000 uM after 90 mins by microfluidic peptide phosphorylation assay
[14] = biological target: Fibroblast growth factor receptor 1 (Homo sapiens) (UniProt P11362); experiment: Inhibition of human FGFR1 catalytic domain expressed in baculovirus assessed as substrate phosphorylation using fluorescence-labelled peptides as substrate at 1000 uM after 90 mins by microfluidic peptide phosphorylation assay
Chain of Fibroblast growth factor receptor 1 (Homo sapiens) (P11362 22-822 limits assumed): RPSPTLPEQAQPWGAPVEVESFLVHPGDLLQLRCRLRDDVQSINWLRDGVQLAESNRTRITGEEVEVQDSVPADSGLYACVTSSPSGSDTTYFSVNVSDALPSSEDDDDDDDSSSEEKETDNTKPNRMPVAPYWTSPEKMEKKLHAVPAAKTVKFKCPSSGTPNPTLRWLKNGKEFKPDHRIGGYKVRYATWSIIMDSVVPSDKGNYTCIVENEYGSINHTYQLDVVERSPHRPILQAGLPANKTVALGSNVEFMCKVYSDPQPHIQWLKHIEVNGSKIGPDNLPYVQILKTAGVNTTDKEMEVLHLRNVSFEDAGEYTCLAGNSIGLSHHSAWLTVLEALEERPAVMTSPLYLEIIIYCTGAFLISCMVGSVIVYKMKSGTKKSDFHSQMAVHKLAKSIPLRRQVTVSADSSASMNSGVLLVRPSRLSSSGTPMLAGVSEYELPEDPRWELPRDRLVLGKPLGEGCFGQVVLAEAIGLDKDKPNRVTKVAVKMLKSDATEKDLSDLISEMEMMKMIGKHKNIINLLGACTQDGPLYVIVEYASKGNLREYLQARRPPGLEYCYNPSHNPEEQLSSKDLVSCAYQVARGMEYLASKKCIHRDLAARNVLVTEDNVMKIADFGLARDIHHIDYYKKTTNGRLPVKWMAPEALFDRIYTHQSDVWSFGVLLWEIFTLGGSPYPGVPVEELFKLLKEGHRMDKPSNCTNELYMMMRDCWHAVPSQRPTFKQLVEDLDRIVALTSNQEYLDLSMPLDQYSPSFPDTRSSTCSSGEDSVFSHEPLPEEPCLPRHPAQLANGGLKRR

NCC1CN(c2ncnc3[nH]c4cnccc4c23)CCO1 (centres undefined)
inhibition [1]: 30%

NCCc1ccc(-c2ncnc3[nH]cnc23)cc1
inhibition [2]: 61.5%

NC1(Cc2ccc(Cl)cc2)CCN(c2ncnc3[nH]ccc23)CC1
inhibition [3]: 0%

C[C@H](CN(C)C)Oc1nc(Nc2cc3cccc(Cl)c3cn2)cnc1C#N
inhibition [4]: 19% | inhibition [5]: 0% | inhibition [6]: 0%

c1nc(N2CCOCC2)c2nc[nH]c2n1
inhibition [7]: 64%

Clc1ccc(C2(c3ccc(-c4ncnc5[nH]cnc45)cc3)CCNCC2)cc1
inhibition [8]: 0% | inhibition [9]: 3% | inhibition [10]: 11%

NC1CCN(c2ncnc3[nH]ccc23)CC1
inhibition [11]: 2.5% | inhibition [12]: 2%

c1cnc2[nH]ccc2c1
inhibition [13]: 68.5% | inhibition [14]: 64.5%
